Experimental data: US20260240784A1, “PHARMACEUTICAL COMPOSITIONS WITH IMPROVED DISSOLUTION” (Applied Materials, Inc., priority 2023, published 2026)
Where two headings read alike, the source gives them in different places.

Columns and labels:
[1] = In vivo pharmacokinetic study in Beagle dogs; details: dog, Beagle dogs (n=6)
in vivo = details: Wistar, rat, po

SMILES: CC(C)OC(=O)C(C)(C)Oc1ccc(C(=O)c2ccc(Cl)cc2)cc1 [uncoated particles, fenofibrate]
- AUC(0-t) ([1]; read-out: AUC0-t, Arithmetic Mean): 8.69 µg·h/mL
- AUC(0-t) ([1]; read-out: AUC0-t, Geometric Mean): 7.8 µg·h/mL
- Cmax ([1]; read-out: Cmax, Arithmetic Mean): 0.497 µg/mL
- Cmax ([1]; read-out: Cmax, Geometric Mean): 0.43 µg/mL
- AUC (in vivo): 149 µg·h/mL
- Cmax (in vivo): 12 µg/mL
- Tmax (in vivo): 4 h
